Read-outs that look alike come from different tables or passages of the source.
Assays:
F1F0-ATPase = biological target: T1, F1F0-ATPase (Bos taurus, UniProt P13621); experiment: Inhibition of F1F0-ATPase activity in synthesizing ATP; assay type: biochemical; settings: inhibition of ATP synthesis by F1F0-ATPase; read-out: ATP Syn IC50
T1 construct: from tissue

Ramos cells = experiment: Cytotoxicity in Ramos cells; assay type: cell-based; settings: cytotoxicity in Ramos cells, read-out: Ramos Cell EC50

## CC(C)N/C(=N/C(=O)c1ccc(F)c(F)c1)Nc1cc(-c2ccc(F)cc2)n[nH]1 [Compound A-262]
F1F0-ATPase
  IC50: < 10 µM
Ramos cells
  EC50: < 10 µM

## O=C(N=C(NCc1ccc(F)cc1Cl)Nc1cc(-c2ccc(Cl)cc2)n[nH]1)c1ccc(Cl)c(F)c1 [Compound A-473]
F1F0-ATPase
  IC50: < 10 µM
Ramos cells; Homo sapiens
  EC50: > 10 µM

## CCOCCN/C(=N/C(=O)c1ccc(F)cc1)Nc1cc(C(F)(F)F)[nH]n1 [Compound A-410]
F1F0-ATPase
  IC50: < 10 µM
Ramos cells
  EC50: > 10 µM

## O=C(N=C(NCC1CCO1)Nc1cc(-c2ccc(Cl)cc2)n[nH]1)c1ccc(F)c(F)c1 (stereo not shown) [Compound A-223]
F1F0-ATPase
  IC50: < 10 µM
Ramos cells; Homo sapiens
  EC50: < 10 µM

## CC(C)N/C(=N/C(=O)c1ccc(Cl)cc1)Nc1cc(-c2cc(F)cc(F)c2)n[nH]1 [Compound A-230]
F1F0-ATPase
  IC50: < 10 µM
Ramos cells
  EC50: < 10 µM

## CC(C)(C)NC(=NC(=O)c1cccc(C#N)c1)Nc1cc(-c2ccc(F)cc2)n[nH]1 [Compound A-527]
F1F0-ATPase
  IC50: < 10 µM
Ramos cells; Homo sapiens
  EC50: < 10 µM

## CC(C)C(C)N/C(=N/C(=O)c1cccc(C#N)c1)Nc1cc(-c2cc(F)cc(F)c2)n[nH]1 (stereo not shown) [Compound A-311]
F1F0-ATPase
  IC50: < 10 µM
Ramos cells
  EC50: < 10 µM

## Cc1ccccc1CN/C(=N/C(=O)c1cc(F)c(F)c(F)c1)Nc1cc(-c2ccc(F)cc2)[nH]n1 [Compound A-397]
F1F0-ATPase
  IC50: < 10 µM
Ramos cells
  EC50: < 10 µM

## Cc1cc(N/C(=N\C(=O)c2ccc(F)c(F)c2)NC2CCCC2)n[nH]1 [Compound A-188]
F1F0-ATPase
  IC50: < 10 µM
Ramos cells
  EC50: > 10 µM

## Cc1cc(C(=O)/N=C(\Nc2cc(-c3ccc(F)cc3)[nH]n2)N[C@@H](C)CO)ccc1F [Compound A-405]
F1F0-ATPase
  IC50: < 10 µM
Ramos cells
  EC50: < 10 µM

## COc1ccc(-c2cc(N/C(=N\C(=O)c3ccc(Cl)c(F)c3)NCc3ccc(F)cc3Cl)[nH]n2)cc1 [Compound A-471]
F1F0-ATPase
  IC50: < 10 µM
Ramos cells
  EC50: > 10 µM

## O=C(/N=C(/NCc1ccc(F)c(Cl)c1)Nc1cc(C(F)F)[nH]n1)c1ccc(F)c(F)c1 [Compound A-61]
F1F0-ATPase
  IC50: < 10 µM
Ramos cells; Homo sapiens
  EC50: > 10 µM

## CC(C)(C)N/C(=N/C(=O)c1ccc(F)cc1)Nc1cc(-c2cccc(Cl)c2)[nH]n1 [Compound A-134]
F1F0-ATPase
  IC50: < 10 µM
Ramos cells
  EC50: < 10 µM

## O=C(/N=C(/Nc1cc(F)cc(Cl)c1)Nc1cc(-c2ccc(F)cc2)n[nH]1)c1cccc(F)c1 [Compound A-458]
F1F0-ATPase
  IC50: < 10 µM
Ramos cells
  EC50: < 10 µM

## O=C(N=C(Nc1cc(F)cc(Cl)c1)Nc1cc(-c2cc(F)cc(F)c2)[nH]n1)c1ccc(F)c(F)c1 [Compound A-419]
F1F0-ATPase
  IC50: < 10 µM
Ramos cells; Homo sapiens
  EC50: < 10 µM

## CC(C)(C)N/C(=N/C(=O)c1ccc(C(F)(F)F)cc1)Nc1cc(-c2cccc(O)c2)n[nH]1 [Compound A-564, (Z)—N-((tert-Butylamino)((3-(3-hydroxyphenyl)-1H-pyrazol-5-yl)amino)methylene)-4-(trifluoromethyl)benzamide]
F1F0-ATPase
  IC50: < 10 µM
Ramos cells; Homo sapiens
  EC50: < 10 µM

## COC[C@H](C)N/C(=N/C(=O)c1ccc(OC)nc1)Nc1cc(-c2ccc(F)cc2)n[nH]1 [Compound A-493]
F1F0-ATPase
  IC50: < 10 µM
Ramos cells
  EC50: < 10 µM

## COc1ccc(C(=O)/N=C(\Nc2cc(-c3ccc(F)cc3)[nH]n2)NC(C)C)cc1 [Compound A-523]
F1F0-ATPase
  IC50: < 10 µM
Ramos cells
  EC50: > 10 µM

## Cc1cccc(C(=O)N=C(Nc2cc(-c3ccc(F)cc3)n[nH]2)NC(C)(C)C)c1 [Compound A-552]
F1F0-ATPase
  IC50: < 10 µM
Ramos cells; Homo sapiens
  EC50: < 10 µM

## CCOCCCN/C(=N/C(=O)c1ccc(F)c(F)c1)Nc1[nH]nc(-c2ccc(Cl)cc2)c1F [Compound A-160]
F1F0-ATPase
  IC50: < 10 µM
Ramos cells
  EC50: > 10 µM

## O=C(/N=C(/Nc1cc(F)cc(Cl)c1)Nc1cc(-c2ccc(Cl)cc2)n[nH]1)c1ccc(C(F)(F)F)cc1 [Compound A-447]
F1F0-ATPase
  IC50: < 10 µM
Ramos cells
  EC50: > 10 µM

## CC(C)(C)CNC(=NC(=O)c1ccc(F)c(F)c1)Nc1cc(-c2ccc(F)cc2)n[nH]1 [Compound A-522]
F1F0-ATPase
  IC50: < 10 µM
Ramos cells; Homo sapiens
  EC50: < 10 µM

## O=C(/N=C(/NCc1ccc(F)cc1Cl)Nc1cc(-c2cccc(Cl)c2)n[nH]1)c1ccc(F)c(F)c1 [Compound A-477]
F1F0-ATPase
  IC50: < 10 µM
Ramos cells
  EC50: > 10 µM

## CCOC[C@H](C)N/C(=N/C(=O)c1ccc(Cl)c(F)c1)Nc1cc(C)[nH]n1 [Compound A-180]
F1F0-ATPase
  IC50: < 10 µM
Ramos cells
  EC50: > 10 µM

## O=C(N=C(Nc1cc(-c2ccc(Cl)cc2)n[nH]1)NC1CCCC1)c1ccc(C(F)(F)F)cc1 [Compound A-239]
F1F0-ATPase
  IC50: < 10 µM
Ramos cells; Homo sapiens
  EC50: > 10 µM

## CC(C)(C)N/C(=N/C(=O)c1ccc(F)c(F)c1)Nc1cc(-c2cc(F)cc(F)c2)[nH]n1 [Compound A-420]
F1F0-ATPase
  IC50: < 10 µM
Ramos cells
  EC50: < 10 µM

## Cc1cc(N/C(=N\C(=O)c2ccc(F)c(F)c2)Nc2cc(F)cc(Cl)c2)n[nH]1 [Compound A-45]
F1F0-ATPase
  IC50: < 10 µM
Ramos cells; Homo sapiens
  EC50: > 10 µM

## O=C(/N=C(/NCc1ccc(F)c(Cl)c1)Nc1cc(C(F)(F)F)[nH]n1)c1ccc(C(F)(F)F)cc1 [Compound A-19]
F1F0-ATPase
  IC50: < 10 µM
Ramos cells; Homo sapiens
  EC50: < 10 µM

## O=C(/N=C(/NCc1ccc(F)cc1Cl)Nc1cc(C(F)(F)F)[nH]n1)c1ccc(F)c(F)c1 [Compound A-24]
F1F0-ATPase
  IC50: < 10 µM
Ramos cells; Homo sapiens
  EC50: < 10 µM

## Cc1ccc(-c2cc(N/C(=N\C(=O)c3ccc(F)c(F)c3)NC(C)(C)C)[nH]n2)cc1F [Compound A-433]
F1F0-ATPase
  IC50: < 10 µM
Ramos cells
  EC50: < 10 µM

## CC(C)NC(=NC(=O)c1ccc(F)c(F)c1)Nc1cc(-c2ccc(Cl)cc2)n[nH]1 [Compound A-379]
F1F0-ATPase
  IC50: < 10 µM
Ramos cells; Homo sapiens
  EC50: < 10 µM

## CC(C)CN/C(=N/C(=O)c1cccc(F)c1)Nc1cc(-c2ccc(F)cc2)n[nH]1 [Compound A-257]
F1F0-ATPase
  IC50: < 10 µM
Ramos cells
  EC50: < 10 µM

## CC(C)(C)CN/C(=N/C(=O)c1ccc(F)c(F)c1)Nc1cc(C(F)F)[nH]n1 [Compound A-88]
F1F0-ATPase
  IC50: < 10 µM
Ramos cells; Homo sapiens
  EC50: < 10 µM

## O=C(/N=C(/Nc1cc(F)cc(Cl)c1)Nc1cc(C2CCC2)[nH]n1)c1ccc(Cl)c(F)c1 [Compound A-147]
F1F0-ATPase
  IC50: < 10 µM
Ramos cells
  EC50: < 10 µM

## C[C@H](N/C(=N\C(=O)c1ccc(C(F)(F)F)cc1)Nc1cc(C(F)(F)F)n[nH]1)C1CCCCC1 [Compound A-94]
F1F0-ATPase
  IC50: < 10 µM
Ramos cells; Homo sapiens
  EC50: < 10 µM

## COc1cccc(CN/C(=N/C(=O)c2cccc(OC)c2)Nc2cc(-c3ccc(F)cc3)[nH]n2)c1 [Compound A-394]
F1F0-ATPase
  IC50: < 10 µM
Ramos cells
  EC50: < 10 µM

## CC(C)N/C(=N/C(=O)c1ccc(Cl)c(F)c1)Nc1cc(-c2ccc(F)cc2)n[nH]1 [Compound A-216]
F1F0-ATPase
  IC50: < 10 µM
Ramos cells
  EC50: < 10 µM

## O=C(/N=C(/NCc1ccc(F)cc1Cl)Nc1cc(-c2ccc(Cl)cc2)n[nH]1)c1ccc(F)c(F)c1 [Compound A-478]
F1F0-ATPase
  IC50: < 10 µM
Ramos cells
  EC50: < 10 µM

## Cc1ccc(-c2cc(NC(=NC(=O)c3ccc(C(F)(F)F)cc3)NC(C)(C)C)[nH]n2)cc1 [Compound A-426]
F1F0-ATPase
  IC50: < 10 µM
Ramos cells; Homo sapiens
  EC50: > 10 µM

## O=C(/N=C(/NCC(F)(F)F)Nc1cc(C(F)(F)F)n[nH]1)c1ccc(F)c(F)c1 [Compound A-11]
F1F0-ATPase
  IC50: < 10 µM
Ramos cells; Homo sapiens
  EC50: < 10 µM

## CC1(CN/C(=N/C(=O)c2cccc(F)c2)Nc2cc(-c3ccc(F)cc3)n[nH]2)CCCO1 (stereo not shown) [Compound A-201]
F1F0-ATPase
  IC50: < 10 µM
Ramos cells
  EC50: > 10 µM

## O=C(/N=C(/NCc1nccs1)Nc1cc(C(F)(F)F)[nH]n1)c1ccc(F)cc1 [Compound A-411]
F1F0-ATPase
  IC50: < 10 µM
Ramos cells
  EC50: > 10 µM

## CC(C)(C)CN/C(=N/C(=O)c1ccc(F)cc1)Nc1cc(-c2ccc(F)cc2)[nH]n1 [Compound A-514]
F1F0-ATPase
  IC50: < 10 µM
Ramos cells
  EC50: < 10 µM

## CC(C)(C)N/C(=N/C(=O)c1ccc(Cl)c(F)c1)Nc1cc(C(F)F)[nH]n1 [Compound A-65]
F1F0-ATPase
  IC50: < 10 µM
Ramos cells; Homo sapiens
  EC50: < 10 µM
